Laboratory results reported in US9757477B2, “Imaging brown adipose tissue with curcumin derivatives” (The General Hospital Corporation, priority 2013, dated 2017).

Assays:
[1] = tested on: interscapular BAT; experiment: Time course and dose optimization of probe signal in BAT area after i.v. injection; format: in vivo, mice
Method: (§1) Next the time course of CRANAD-2 and CRANAD-3 accumulation in BAT area was investigated. […] Similarly, the signal of CRANAD-3 reached the uptake peak around one hour, and then gradually washed out (FIG. 8c-d). Accumulation of CRANAD-2 and -3 in BAT was further confirmed with ex vivo histology of the dissected BAT slices, performed as follows. The dissected BAT was fixed with 4% formalin at 4° C. overnight, and then embedded into OCT. BAT tissue was cut into 7 micron thickness slices, washed with PBS buffer, and co-stained with DAPI (Vectra Shield, Vector Lab, Burlingame, Calif.). Images were acquired with fast exposure to capture the dye signal in the oil droplets. To outline cell membrane cell autofluorescence was captured with long exposure after image of the dye signal from oil droplets was already acquired. To further validate the capacity of CRANAD-29 for BAT labeling, ex vivo histological microscopic imaging with CRANAD-29 was conducted. […] Gold standard H&E staining also provided similar images (FIG. 10a). […] The injection dose of CRANAD-29 was optimized, and the fluorescence signal reached its plateau at 0.4 mg/kg (FIG. 11). In the following studies, 0.1 mg/kg dose was used.

[2] = tested on: brown adipose cells; experiment: Ex vivo histology of dissected BAT slices; parameters: species or system mice; conditions: fluorescence microscopy
Method: as §1

[3] = tested on: BAT cells induced from wild-type brown preadipocytes; experiment: In vitro staining of BMPs-induced BAT cells (live cell confocal); format: cell-based; conditions: live cell confocal images
[4] = Excitation and emission wavelengths of BAT imaging agents; format: physicochemical
Method: In some embodiments, the methods include irradiating the mammal with light of the appropriate wavelength to excite the BAT imaging agent, and detecting emissions therefrom.
Fluorescent dyes were purchased from Exciton Inc. (Dayton, Ohio) and Invitrogen. The reagents used for the synthesis were purchased from Aldrich and used without further purification. Column chromatography was performed on silica gel (SiliCycle Inc., 60 Å, […]) slurry packed into glass columns. 1H, 13C NMR spectra were recorded at 500 MHz and 125 MHz respectively, and reported in ppm downfield from tetramethylsilane. Fluorescence studies were carried out using a F-4500 Fluorescence Spectrophotometer (Hitachi). Mass spectra were obtained at Harvard University, Department of Chemistry Instrumentation Facility. Microscopic images were acquired with Nikon Eclipse 50i microscope. In vivo NIR imaging was performed using the IVIS® Spectrum animal imaging system (Caliper LifeSciences, Perkin Elmer, Hopkinton, Mass.), and data analysis was conducted using LivingImage® 4.2.1 software.

[5] = tested on: interscapular BAT; experiment: Monitoring interscapular BAT mass change in STZ-induced diabetic mice; format: in vivo, Balb/c mice
Method: Monitoring was performed as follows. Two-month old Balb/c mice (n=5) were injected with STZ (80 mg/kg) for 7 days. When blood glucose levels reached 250 mg/dL on two consecutive days, mice were subjected to NIR imaging with CRANAD-29. Before imaging, the fur around the interscapular area was removed. Images were acquired at pre-injection, as well as 2- and 4-hours after i.v. injection. After imaging, mice were sacrificed, BAT from both groups was dissected, and weighted, and the linear correlation was established between in vivo fluorescence signal and weight of the dissected BATs. The same imaging procedure was conducted with the control group injected with the same volume of saline for 7 days (n=5).

[6] = tested on: interscapular BAT; experiment: Monitoring BAT activation under cold exposure; format: in vivo, balb/c mice; conditions: 4° C. cold exposure
Method: BAT could be activated under various conditions including cold exposure. In this report, whether CRANAD-29 could be used to monitor BAT activation under these conditions was investigated as follows. Two-month old balb/c mice (n=5) were placed in a 4° C. cold room for 2 hours before i.v. injection of CRANAD-29. Images were acquired at 1-, 2-, 4-hours after probe injection, and mice were placed in the cold room between imaging sessions. Control mice (n=5) were placed in a 25° C. room. Images were captured at the same time points after CRANAD-29 injection.

[7] = tested on: inguinal sWAT; experiment: Monitoring browning of subcutaneous WAT after CL 316,243 treatment; format: in vivo, C57BL6 mice; conditions: after 12 days CL 316,243 1.0 mg/kg i.p.
Method: Two-month old C57BL6 mice (n=5) were i.p. injected CL 316,243 (100 uL, 1.0 mg/kg) for 12 days, and the control mice (n=5) were i.p. injected with saline. On the 13th day, both groups were imaged after i.v. injection of CRANAD-29. Images were acquired at 1-, 2-, 4-hours after the probe injection. After the last imaging session, inguinal sWAT were dissected after scarification of the mice, and the dissected sWAT tissue was subjected to qPCR for UCP-1 expression and H&E staining

| cleared by ([1]; i.v. injection) | signal detectable until ([1]; i.v. injection) | time of uptake peak in BAT area after injection ([1]; i.v. injection) | Emission λ [4] | Excitation λ [4] | time at which uptake reached plateau after probe injection ([1]; mouse, in vivo, iv) | Structure (SMILES) | labeling in ex vivo histology of BAT slices [2] | staining of oil droplets in BAT cells [3] | injection dose at which fluorescence signal reached its plateau ([1]; dose optimization) | fluorescence signal from diabetic mice vs control group ([5]; STZ 80 mg/kg for 7 days, CRANAD-29 i.v.) | correlation between BAT mass and fluorescence signal ([5]; STZ-treated and normal animals) | signal of cold-exposed animals vs control group ([6]; 1 hour after probe injection) | signal of cold-exposed animals vs control group ([6]; 2 hours after probe injection) | signal of cold-exposed animals vs control group ([6]; 4 hours after probe injection) | CRANAD-29 signal around inguinal subcutaneous WAT, treated vs control group [7] | fluorescent signal from interscapular BAT area, treated vs control group [7] |
| --- | --- | --- | --- | --- | --- | --- | --- | --- | --- | --- | --- | --- | --- | --- | --- | --- |
| ≤ 720 min | at least 180 min | 120 min | 680 nm | 605 nm | – | CN(C)c1ccc(/C=C/C2=CC(=C/C=C3C=CC(=[N+](C)C)C=C3)/O[B-](F)(F)O2)cc1 [CRANAD-2] | labeled oil droplets in brown adipose cells | able to clearly label oil droplets in BAT cells | – | – | – | – | – | – | – | – |
| – | – | – | 700 nm | 640 nm | around 2 h | F[B-]1(F)OC(/C=C/c2cc3c4c(c2)CCCN4CCC3)=CC(/C=C/c2cc3c4c(c2)CCCN4CCC3)=[O+]1 [CRANAD-29] | capable of labeling BAT cells | – | 0.4 mg/kg | significantly lower | excellent direct correlation | 1.65 fold | 1.59 fold | 1.53 fold | significantly higher | higher fluorescent signal |
